Source: patent US20210260213A1, “METHODS AND COMPOSITIONS FOR DELIVERY OF A THERAPEUTIC AGENT” (priority 2018, published 2021)
In brackets after ≈: the same amount, converted by molar mass.

Tests used:
[1] = system: Pseudomonas aeruginosa; assay: Filter disc zone of inhibition on Mueller Hinton plates; format: cell-based; settings: control study
Method: (§1) Antimicrobial activity of the released drug was tested on Pseudomonas aeruginosa and MRSA cultures and compared to standard concentrations of antibiotic using filter disks on Mueller Hinton plates. The released antibiotics or controls were added onto sterile filter discs (created using a standard hole punch on filter paper, autoclaved). One colony of each bacteria was selected and (pseudomonas or MRSA) placed into a bacteria culture tube and were incubated in 5 mL of LB broth and placed on 37° C. shaker for approximately 4-6 hours.
(§2) 500 μL of the incubated bacteria was then added to the Mueller-Hinton Plates (which have been acclimated to room temperature for at least 2 hours) and a plastic disposable spreader was used to carefully spread the bacteria broth onto the plates and allowed to settle for approximately 5-10 minutes. The filter discs were then placed on top of the bacterial plate and the plates inverted and placed in the 37° C. incubator overnight. After 24 hours, the plates were removed and the zones of inhibition measured and photographed. Parafilm was used to wrap around each plate to keep the plates at room temperature.

[2] = published studies; cited from earlier work
[3] = system: MRSA; assay: Filter disc zone of inhibition on Mueller Hinton plates; format: cell-based
Method: as §1, §2

Structure (SMILES)	amount sufficient to inhibit growth [1]	minimum inhibitory concentration [2]	zone of inhibition at 10 µg/disc ([3]; Staphylococcus aureus, MRSA, control, 10 μg on a filter disc)	amount sufficient to inhibit growth ([3]; control study, filter disc)	zone of inhibition ([3]; drug released from the HA polymer, every collection between 1 hour and 7 days)
O=C(O)c1cn(C2CC2)c2cc(N3CCNCC3)c(F)cc2c1=O [Ciprofloxacin]	5 µg	0.5 µg/mL (≈ 1.51 µM)			
CN[C@H](CC(C)C)C(=O)N[C@H]1C(=O)N[C@@H](CC(N)=O)C(=O)N[C@H]2C(=O)N[C@H]3C(=O)N[C@H](C(=O)N[C@H](C(=O)O)c4cc(O)cc(O)c4-c4cc3ccc4O)[C@H](O)c3ccc(c(Cl)c3)Oc3cc2cc(c3O[C@@H]2O[C@H](CO)[C@@H](O)[C@H](O)[C@H]2O[C@H]2C[C@](C)(N)[C@H](O)[C@H](C)O2)Oc2ccc(cc2Cl)[C@H]1O [Vancomycin]		2 µg/mL (≈ 1.38 µM)	8 mm	10 µg	up to 15 mm
